Experimental findings from PMC9481570, “A small molecule antagonist of SMN disrupts the interaction between SMN and RNAP II” (Nature Communications, 2022) are described below.

Common to all, as to experiment: Affinity-purification and mass spectrometry (AP-MS) chemical proteomics, all proteins;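 on Difference: 200 µM free competitor with 20 µM biotin probe overnight in lysate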
Holding throughout (type): binding

Test [1] has as its target T1, proteins displaced from immobilized biotin-Cmpd 1 pulldowns (U2OS cell lysate) (Homo sapiens, UniProt Q15050).
T1 construct: endogenous in cells; host or cells: U2OS
The settings on record: GN=RRS1 (Q15050).

The target of test [2] is T2, proteins displaced from immobilized biotin-Cmpd 1 pulldowns (U2OS cell lysate) (Homo sapiens, UniProt Q9H8H0).
T2 construct: endogenous in cells; host or cells: U2OS
The settings on record: GN=NOL11 (Q9H8H0).

The target of test [3] is T3, proteins displaced from immobilized biotin-Cmpd 1 pulldowns (U2OS cell lysate) (Homo sapiens, UniProt Q9BYD6).
T3 construct: endogenous in cells; host or cells: U2OS
The settings on record: GN=MRPL1 (Q9BYD6).

Test [4] concerns the target T4, proteins displaced from immobilized biotin-Cmpd 1 pulldowns (U2OS cell lysate) (Homo sapiens, UniProt P62306).
T4 construct: endogenous in cells; host or cells: U2OS
The settings on record: GN=SNRPF (P62306).

Test [5] addresses T5, proteins displaced from immobilized biotin-Cmpd 1 pulldowns (U2OS cell lysate) (Homo sapiens, UniProt Q8NBJ5).
T5 construct: endogenous in cells; host or cells: U2OS
The settings on record: GN=COLGALT1 (Q8NBJ5).

In test [6] the target is T6, proteins displaced from immobilized biotin-Cmpd 1 pulldowns (U2OS cell lysate) (Homo sapiens, UniProt P60174).
T6 construct: endogenous in cells; host or cells: U2OS
The note with it: GN=TPI1 (P60174).

For test [7], the target named is T7, proteins displaced from immobilized biotin-Cmpd 1 pulldowns (U2OS cell lysate) (Homo sapiens, UniProt Q02880).
T7 construct: endogenous in cells; host or cells: U2OS
The note with it: GN=TOP2B (Q02880).

Test [8] deals with T8, proteins displaced from immobilized biotin-Cmpd 1 pulldowns (U2OS cell lysate) (Homo sapiens, UniProt Q12873).
T8 construct: endogenous in cells; host or cells: U2OS
The note with it: GN=CHD3 (Q12873).

For test [9], the target named is T9, proteins displaced from immobilized biotin-Cmpd 1 pulldowns (U2OS cell lysate) (Homo sapiens, UniProt Q9UNF1).
T9 construct: endogenous in cells; host or cells: U2OS
The note with it: GN=MAGED2 (Q9UNF1).

For test [10], the target named is T10, proteins displaced from immobilized biotin-Cmpd 1 pulldowns (U2OS cell lysate) (Homo sapiens, UniProt P09493).
T10 construct: endogenous in cells; host or cells: U2OS
The note with it: GN=TPM1 (H0YKX5).

The structures appear in SMILES notation. Several values for one entry are separate records, joined by “and”; a condition that tells them apart may be missing. Equal values may be shown once.

T8 sequence (Q12873 whole entry): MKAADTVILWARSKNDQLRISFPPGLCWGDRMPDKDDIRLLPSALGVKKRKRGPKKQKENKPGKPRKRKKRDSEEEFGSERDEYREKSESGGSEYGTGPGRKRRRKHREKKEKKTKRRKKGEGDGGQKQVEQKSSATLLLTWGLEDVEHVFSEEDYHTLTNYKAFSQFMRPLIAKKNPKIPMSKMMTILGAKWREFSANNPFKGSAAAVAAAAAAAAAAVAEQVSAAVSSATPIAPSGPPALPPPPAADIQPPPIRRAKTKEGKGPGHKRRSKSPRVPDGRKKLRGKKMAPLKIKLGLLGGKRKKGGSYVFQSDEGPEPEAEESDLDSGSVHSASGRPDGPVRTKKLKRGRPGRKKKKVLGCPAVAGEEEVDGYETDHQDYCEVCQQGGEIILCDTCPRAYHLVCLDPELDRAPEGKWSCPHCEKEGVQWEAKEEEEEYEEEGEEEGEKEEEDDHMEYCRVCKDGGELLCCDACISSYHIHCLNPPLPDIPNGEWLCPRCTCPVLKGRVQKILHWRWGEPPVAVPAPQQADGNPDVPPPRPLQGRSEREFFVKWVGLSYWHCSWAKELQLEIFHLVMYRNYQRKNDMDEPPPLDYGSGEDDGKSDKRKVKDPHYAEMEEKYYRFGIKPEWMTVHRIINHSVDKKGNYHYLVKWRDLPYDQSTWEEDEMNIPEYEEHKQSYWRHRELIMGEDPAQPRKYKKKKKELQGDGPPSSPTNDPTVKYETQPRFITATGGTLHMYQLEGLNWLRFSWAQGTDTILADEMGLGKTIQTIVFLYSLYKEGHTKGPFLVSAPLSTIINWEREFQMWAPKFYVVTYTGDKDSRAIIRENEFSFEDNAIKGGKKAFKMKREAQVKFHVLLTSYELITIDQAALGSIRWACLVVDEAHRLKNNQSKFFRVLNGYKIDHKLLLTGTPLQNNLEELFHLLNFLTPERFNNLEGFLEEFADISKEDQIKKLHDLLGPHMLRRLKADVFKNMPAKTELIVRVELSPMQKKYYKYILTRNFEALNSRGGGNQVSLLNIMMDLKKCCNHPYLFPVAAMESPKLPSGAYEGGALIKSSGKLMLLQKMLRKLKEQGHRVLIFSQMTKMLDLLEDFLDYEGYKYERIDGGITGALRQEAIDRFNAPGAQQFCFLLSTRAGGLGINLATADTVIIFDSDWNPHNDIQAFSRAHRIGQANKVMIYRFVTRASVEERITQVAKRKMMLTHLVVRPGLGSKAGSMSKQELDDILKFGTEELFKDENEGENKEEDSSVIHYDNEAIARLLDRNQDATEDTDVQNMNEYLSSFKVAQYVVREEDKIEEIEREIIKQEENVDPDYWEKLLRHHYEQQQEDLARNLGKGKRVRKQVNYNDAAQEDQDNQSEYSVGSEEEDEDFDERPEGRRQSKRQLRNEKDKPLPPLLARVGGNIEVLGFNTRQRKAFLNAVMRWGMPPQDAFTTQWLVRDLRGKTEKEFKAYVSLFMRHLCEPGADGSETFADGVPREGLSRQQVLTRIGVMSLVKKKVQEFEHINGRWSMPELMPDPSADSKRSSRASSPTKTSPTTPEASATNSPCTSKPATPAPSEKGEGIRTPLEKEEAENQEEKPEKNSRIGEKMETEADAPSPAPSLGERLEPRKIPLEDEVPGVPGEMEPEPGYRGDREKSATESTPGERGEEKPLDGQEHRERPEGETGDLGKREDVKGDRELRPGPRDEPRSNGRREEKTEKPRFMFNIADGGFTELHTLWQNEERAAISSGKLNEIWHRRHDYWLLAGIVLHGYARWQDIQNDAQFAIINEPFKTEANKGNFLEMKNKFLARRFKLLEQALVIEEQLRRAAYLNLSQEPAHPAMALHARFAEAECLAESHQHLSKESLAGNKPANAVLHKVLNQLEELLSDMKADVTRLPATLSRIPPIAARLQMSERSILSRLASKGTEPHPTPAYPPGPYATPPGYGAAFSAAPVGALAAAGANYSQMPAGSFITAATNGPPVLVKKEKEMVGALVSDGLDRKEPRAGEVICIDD
T10 sequence (P09493 whole entry): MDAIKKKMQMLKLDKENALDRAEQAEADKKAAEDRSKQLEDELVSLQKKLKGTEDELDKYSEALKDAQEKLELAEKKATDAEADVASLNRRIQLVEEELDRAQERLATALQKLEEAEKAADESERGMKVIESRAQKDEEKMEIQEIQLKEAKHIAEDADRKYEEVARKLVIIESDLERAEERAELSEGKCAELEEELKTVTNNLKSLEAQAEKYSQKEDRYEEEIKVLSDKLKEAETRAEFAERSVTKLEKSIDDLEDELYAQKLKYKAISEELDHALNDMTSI
T7 sequence (Q02880 whole entry): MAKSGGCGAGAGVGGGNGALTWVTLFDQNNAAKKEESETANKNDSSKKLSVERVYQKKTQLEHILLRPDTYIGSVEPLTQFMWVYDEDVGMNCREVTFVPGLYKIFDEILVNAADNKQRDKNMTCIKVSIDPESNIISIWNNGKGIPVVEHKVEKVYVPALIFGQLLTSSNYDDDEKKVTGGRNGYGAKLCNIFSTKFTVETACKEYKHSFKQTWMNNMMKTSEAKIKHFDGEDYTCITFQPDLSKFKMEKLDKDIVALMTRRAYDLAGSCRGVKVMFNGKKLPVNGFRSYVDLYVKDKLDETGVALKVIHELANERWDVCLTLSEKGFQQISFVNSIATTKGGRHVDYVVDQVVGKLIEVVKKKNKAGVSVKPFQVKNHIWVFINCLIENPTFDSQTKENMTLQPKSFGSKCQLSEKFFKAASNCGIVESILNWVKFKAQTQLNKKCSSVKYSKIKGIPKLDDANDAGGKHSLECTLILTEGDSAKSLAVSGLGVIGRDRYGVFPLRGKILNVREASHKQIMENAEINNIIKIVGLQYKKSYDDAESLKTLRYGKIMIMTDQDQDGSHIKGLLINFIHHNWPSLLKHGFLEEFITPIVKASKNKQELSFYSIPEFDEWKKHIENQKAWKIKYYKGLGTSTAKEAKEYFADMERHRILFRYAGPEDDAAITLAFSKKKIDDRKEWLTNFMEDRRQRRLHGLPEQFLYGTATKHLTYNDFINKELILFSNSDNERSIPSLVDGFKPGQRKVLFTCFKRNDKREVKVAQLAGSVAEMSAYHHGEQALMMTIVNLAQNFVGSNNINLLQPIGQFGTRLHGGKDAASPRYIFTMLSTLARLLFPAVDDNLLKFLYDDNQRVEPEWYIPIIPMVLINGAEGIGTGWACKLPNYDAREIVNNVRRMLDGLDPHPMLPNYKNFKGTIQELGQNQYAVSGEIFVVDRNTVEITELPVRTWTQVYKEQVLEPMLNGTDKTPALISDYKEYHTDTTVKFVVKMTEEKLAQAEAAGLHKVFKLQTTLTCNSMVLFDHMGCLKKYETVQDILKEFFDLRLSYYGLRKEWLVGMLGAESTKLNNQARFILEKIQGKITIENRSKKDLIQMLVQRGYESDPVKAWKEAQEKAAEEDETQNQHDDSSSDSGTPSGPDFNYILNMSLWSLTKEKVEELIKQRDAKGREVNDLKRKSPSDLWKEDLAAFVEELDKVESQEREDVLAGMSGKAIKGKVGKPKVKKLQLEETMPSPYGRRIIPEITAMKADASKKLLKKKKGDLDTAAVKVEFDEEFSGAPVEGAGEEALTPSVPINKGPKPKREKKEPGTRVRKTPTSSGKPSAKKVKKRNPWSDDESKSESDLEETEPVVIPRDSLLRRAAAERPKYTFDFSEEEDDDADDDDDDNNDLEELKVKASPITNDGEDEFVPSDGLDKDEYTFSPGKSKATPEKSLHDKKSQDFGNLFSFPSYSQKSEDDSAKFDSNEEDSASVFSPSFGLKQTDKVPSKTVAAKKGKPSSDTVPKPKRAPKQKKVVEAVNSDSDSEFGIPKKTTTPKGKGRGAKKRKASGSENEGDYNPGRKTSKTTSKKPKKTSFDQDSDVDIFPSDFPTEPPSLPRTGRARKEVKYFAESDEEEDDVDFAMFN
T2 sequence (Q9H8H0 whole entry): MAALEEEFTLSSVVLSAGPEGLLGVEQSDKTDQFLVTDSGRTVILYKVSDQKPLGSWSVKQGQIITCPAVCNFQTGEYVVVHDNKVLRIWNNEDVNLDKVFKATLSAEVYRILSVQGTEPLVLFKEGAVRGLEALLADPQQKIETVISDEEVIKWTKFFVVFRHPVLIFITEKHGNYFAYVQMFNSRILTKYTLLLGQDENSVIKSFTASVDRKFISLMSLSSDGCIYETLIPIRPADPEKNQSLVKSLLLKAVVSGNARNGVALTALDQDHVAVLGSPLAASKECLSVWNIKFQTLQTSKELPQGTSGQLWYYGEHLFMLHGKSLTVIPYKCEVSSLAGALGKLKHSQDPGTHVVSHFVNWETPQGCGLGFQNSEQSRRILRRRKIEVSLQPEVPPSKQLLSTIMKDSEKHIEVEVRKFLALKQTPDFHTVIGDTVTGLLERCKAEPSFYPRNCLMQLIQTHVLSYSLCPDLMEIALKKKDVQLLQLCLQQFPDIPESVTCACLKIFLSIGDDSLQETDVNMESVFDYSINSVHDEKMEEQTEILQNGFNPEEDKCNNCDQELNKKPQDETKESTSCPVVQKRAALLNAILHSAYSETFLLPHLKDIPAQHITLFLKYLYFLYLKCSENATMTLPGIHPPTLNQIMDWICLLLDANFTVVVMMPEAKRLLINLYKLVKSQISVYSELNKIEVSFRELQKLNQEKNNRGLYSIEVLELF
T1 sequence (Q15050 whole entry): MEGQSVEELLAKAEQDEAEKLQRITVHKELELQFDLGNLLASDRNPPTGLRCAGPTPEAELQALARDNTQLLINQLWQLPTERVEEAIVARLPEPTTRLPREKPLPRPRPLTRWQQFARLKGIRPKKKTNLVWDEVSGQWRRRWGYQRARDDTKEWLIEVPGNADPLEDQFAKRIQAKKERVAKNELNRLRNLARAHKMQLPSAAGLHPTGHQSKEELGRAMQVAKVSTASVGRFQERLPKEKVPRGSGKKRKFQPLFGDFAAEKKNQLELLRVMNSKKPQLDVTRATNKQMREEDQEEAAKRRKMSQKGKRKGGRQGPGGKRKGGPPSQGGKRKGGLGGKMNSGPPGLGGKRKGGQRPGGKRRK
T4 sequence (P62306 whole entry): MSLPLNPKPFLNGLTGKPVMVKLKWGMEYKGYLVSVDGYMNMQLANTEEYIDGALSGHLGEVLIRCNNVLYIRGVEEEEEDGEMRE

For the compound `Cn1c2c(c(=N)c3c1CCC3)CCC2` [Compound 1, 4-methyl-2,3,4,5,6,7-hexahydrodicyclopenta[b,e]pyridin-8(1H)-imine], the Difference is given as 2.281 in [1] (Cmpd minus DMSO, -LOG(P-value) 0.720694); -0.9892 in test [2] (Cmpd minus DMSO, -LOG(P-value) 1.02475); 3.091 in test [3] (Cmpd minus DMSO, -LOG(P-value) 1.01314); -6.902 in test [4] (Cmpd minus DMSO, -LOG(P-value) 2.38454); 1.872 in test [5] (Cmpd minus DMSO, -LOG(P-value) 0.726003); -0.9556 in test [6] (Cmpd minus DMSO, -LOG(P-value) 0.713184). Besides, the Difference in test [7] (Cmpd minus DMSO, -LOG(P-value) 0.742976) is listed as 1.036; in test [8] (Cmpd minus DMSO, -LOG(P-value) 0.756951), -1.815; in test [9] (Cmpd minus DMSO, -LOG(P-value) 0.822167) it was 0.7403; in test [10] (Cmpd minus DMSO, -LOG(P-value) 1.96752), -0.7334. Also, the “iBAQ Cmpd” value in [1] (replicates 1-3) is 15.4548 and 18.445 and 19.3119; in test [2] (replicates 1-3), 17.1431 and 16.1539 and 16.3373; in test [3] (replicates 1-3), 18.4151 and 17.6221 and 18.5153; in test [4] (replicates 1-3), 16.7845 and 14.607 and 12.7996; in [5] (replicates 1-3) it was 17.5569 and 16.2606 and 16.9957; in [6] (replicates 1-3) it was 17.6148 and 17.9108 and 16.6151. In addition, the “iBAQ Cmpd” value is 16.8685 and 16.1972 and 16.6057 in test [7] (replicates 1-3); 14.8034 and 14.2721 and 13.9438 in [8] (replicates 1-3); 20.5058 and 20.3034 and 20.4789 in [9] (replicates 1-3); 21.937 and 22.2825 and 22.2241 in test [10] (replicates 1-3).
